Laboratory results published in patent US12174172B2, “Method for evaluating the efficacy of a composition in reducing the effects of cancer therapeutics on skin” (Johnson & Johnson Consumer Inc., priority 2019, dated 2024).
“Also recorded” adds a separate entry of the source. Marks after values point to notes of the source that are not given here.

Columns and labels:
[1] = tested on: Human epidermal keratinocytes cells (HPEKs), 3D micro-epidermis; test: 3D micro-epidermis model (EpiScreen): epidermis size, toxicity, dose response, classification; type: cell-based;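 further: keratinocytes on micropatterned discs in high-calcium medium, drug exposure for three days, then fixation and confocal high-content imaging of actin, nuclei and a marker, vehicle DMSO-matched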
desmoglein-1 (DSG1) = test: 3D micro-epidermis model (EpiScreen): desmoglein-1 immunostaining; type: cell-based, human
Protocol: To assess the effects of such therapy molecules on the epidermis, keratinocytes were grown in the presence of kinase inhibitors during 3 days with high calcium concentration to induce keratinocyte differentiation and generate a 3D-stratified differentiated epidermis. Drug impact on the epidermis development was assessed via different keratinocyte markers including: • Ki-67, an universally expressed protein among proliferating cells and absent in the quiescent cells; • Filaggrin, a filament-associated protein that binds to keratin fibers and is a marker of terminal differentiation; • Desmoglein-1, a component of desmosomes and differentiation marker expressed in all epidermal layer above the basal layer; and • Involucrin, an early differentiation marker expressed in the spinous and granular layers and a protein precursor of the epidermal cornified envelope.
Human epidermal keratinocytes cells (HPEKs) from a juvenile donor (CellnTec, Switzerland) are cultured in flasks in proliferation medium. Keratinocytes are seeded at passage 6 into EpiScreen™ (Abzena, Cambridge, UK) plates containing collagen 1 coated disc micropatterns (CYTOO, Grenoble, France). Four hours later, unattached cells are washed off and a high calcium medium is added to induce keratinocytes differentiation. The day after, keratinocytes are treated with screening compounds, and Trichostatin A is added at 0.3 μM as an internal positive control. After three days of treatment, micro-epidermises are fixed with a formalin solution 10% for 30 minutes, then permeabilized with 0.1% Triton. Several immunostainings are performed: actin (Acti-Stain 555, PHDH1, Cytoskeleton), nuclei (Hoechst, H3570, Invitrogen), and one biomarker of interest per well either anti-involucrin (HPA055211, Sigma), anti-filaggrin (HPA030189, Sigma) or anti-desmoglein-1 (HPA022128, Sigma). Antibodies are added overnight at 4° C. before staining with secondary antibody, anti-rabbit 488 (711-545-152, Jackson) for 2 hours at room temperature.
Images of each well are acquired with the Operetta HCS platform (Perkin Elmer, Waltham, MA, USA) using a ×10 objective in confocal mode in eight z-planes from 2 μm to 44 μm in steps of 6 μm in each of the 3 channels: actin, nuclei, and one biomarker of interest. The first step of the image analysis consists in detecting micro-epidermis structures on the first z-plane by segmenting the actin staining. Micro-epidermis structures are validated based on several area and roundness min and max criteria. Then, the area of each biomarker staining is measured inside the valid micro-epidermis masks through each z-plane. For all homogeneous biomarker staining, their intensity through the different planes is measured.
The actin network of each micro-epidermis is analyzed in each z-plane in order to determine the average 3D structure edges. The biomarker intensity is measured in each z-plane for each structure, and then averaged with the other results generated in the same well. Based on the data generated in the two previous steps, an average 3D reconstruction image is generated. It consists of a meshwork that delimits the structure edges, and a color scaled volume that corresponds to the biomarkers distribution and expression.
The effect of 8 oncology molecules, selected from first generation EGFRi and pan-kinase inhibitors which mostly target VEGFR and second and third generation therapies targeting main mutations relating to first generation treatment resistance, were assessed in vitro using a 3D micro-epidermis model. The drug incubation concentrations (3, 10, 30, 100 nM) were selected to reflect the clinically relevant (unbound) drug exposures (Table 2). The drug impact was assessed by analysis of tissue size and keratinocyte proliferation using Ki-67 staining and keratinocyte differentiation using filaggrin, desmoglein-1 and involucrin staining. […]

[2] = tested on: SkinEthic Reconstructed Human Epidermis (RHE); test: Skin barrier function: trans-epidermal water loss (TEWL) on reconstructed human epidermis; type: cell-based; settings: day 7; SDS 0.5% topical; afatinib 100 nM in the media
Protocol: The effect of drugs on the skin barrier function was assessed by measuring trans-epidermal water loss (TEWL) rates on SkinEthicTM Reconstructed Human Epidermis (RHE) model (Episkin, Lyon, France) using Tewitro® TW 24 (Courage+Khazaka electronic GmbH, Köln, Germany). This instrument allows 24 simultaneous measurements on RHE. TEWL was analyzed at 33° C. in an incubator. […] Petrolatum, a highly hydrophobic hydrocarbon, water-repelling and insoluble in water was used to block water evaporation at the RHE surface (negative control). […] DMSO was used in the same proportion in the vehicle. SkinEthicTM RHE (Episkin, Lyon, France), is an in vitro reconstructed human epidermis from normal human keratinocytes cultured on an inert polycarbonate filter at the air-liquid interface, in a chemically defined medium. This model exists at different stages of maturity. This model is histologically similar to in vivo human epidermis. See […].com/SkinEthic%20RHE. The Tewitro® TW 24 is a device that measures water evaporation from cultured tissue sets (wells in a plate with medium) in up to 24 wells simultaneously. See https://www.courage-[…].

[3] = tested on: caspase-3 activity in keratinocytes; test: Caspase-3 fluorometric assay (cell apoptosis); type: cell-based, human; settings: 2.59 nM and 25.89 nM, 24 h (FIG. 5b)
Excerpt: The kit (biotium, Fremont, CA, USA) provides a homogenous assay system for fast and highly sensitive detection of caspase-3 activity by fluorescence in enzymatic reaction or mammalian cells. The fluorogenic substrate (Ac-DEVD) 2-R110 contains two DEVD (Asp-Glu-Val-Asp) tetrapeptides and is completely hydrolyzed by the enzyme in two successive steps. Cleavage of the first DEVD peptide results in the monopeptide Ac-DEVD-R110 intermediate, which has absorption and emission wavelengths similar to those of R110 (Ex/Em=496/520 nm) but has only about 10% of the fluorescence of the latter. Hydrolysis of the second DEVD peptide releases the dye R110, leading to a substantial fluorescence increase. Keratinocytes were plated at 15,000 cells per well in 100 μl of medium in a 96-well black microplate. They were allowed to attach and grow overnight in a 37° C., 5% CO2 incubator. They were then treated for 20 h with a 1:2 dilution series of staurosporine, a caspase 3 inducer. Imaging was performed on Perkin Elmer EnVision 2103 Multilabel Reader using an excitation wavelength of 490 nm and emission wavelength of 535 nm. Cells were incubated at room temperature for 15 min, protected from light. Results were obtained with 6 donors of keratinocytes in 2 experiments

[4] = cited from earlier work
[5] = most frequent cutaneous adverse reaction reported by the FDA Adverse Event Reporting System; cited from earlier work

Q: Which “Toxicity at 1 μM” value ([1]; 1 μM, micro-epidermis) does the source give for `CN(C)C/C=C/C(=O)Nc1cc2c(Nc3ccc(F)c(Cl)c3)ncnc2cc1O[C@H]1CCOC1` [Afatinib] here?
A: The value was “Yes”.

Q: What about the “effect on desmoglein-1, involucrin and filaggrin expression (dose dependence)” value ([1]; 3, 10, 30 nM) of the same compound?
A: The value was “increases; also recorded: dose-dependent manner”.

Q: What about the Epidermis size ([1]; Table 1 summary of drug effect on epidermis) of the same compound?
A: Its Epidermis size is “Decreased”.

Q: And the Classification ([1]; Table 1 summary, pro-differentiation / pro-proliferation)?
A: Its Classification is “Pro-differentiation”.

Q: And the Epidermis size ([1]; Table 3, 30 nM (EGFRi) or 100 nM (VEGFRi), 3 days, vs untreated control, superscript = significance footnote)?
A: Its Epidermis size is “Decreased^2”.

Q: What about the Classification ([1]; Table 3, pro-proliferation or pro-differentiation) of the same compound?
A: Its Classification is “Pro-”.

Q: And the Dose in response ([1]; Table 3, variation of protein expression at 3, 10, 30 nM (EGFRi) or 3, 10, 30, 100 nM (VEGFRi), markers in brackets)?
A: Its Dose in response is “Yes”.

Q: And the “toxicity at higher drug concentration” value ([1]; above 1 μM, micro-epidermis)?
A: Its value is “toxic leading to epidermal necrosis”.

Q: And the “micro-epidermis size / epidermal volume” value ([1]; concentration (afatinib 3-30 nM; pan-kinase inhibitors up to 100 nM))?
A: Its value is “significantly decreased; also recorded: significantly reduced”.

Q: What about the Dose/response ([1]; supplementary table, per run (1st or 2nd Run), markers in brackets) of the same compound?
A: The Dose/response was “Yes (DSG, IVL,”.

Q: What about the “DSG 3 nM” value (desmoglein-1 (DSG1); 3 nM, supplementary data) of the same compound?
A: Its value is 38%.

Q: And the “DSG 30 nM” value (desmoglein-1 (DSG1); 30 nM, supplementary data)?
A: Its value is 87%.

Q: What about the activation at 0.01 µM (desmoglein-1 (DSG1); Homo sapiens, 72 h, 10 nM, supplementary data, read-out: DSG 10 nM) of the same compound?
A: Its activation at 0.01 µM is 67%.

Q: What about the DSG-1 expression (desmoglein-1 (DSG1); Table 1 summary) of the same compound?
A: Its DSG-1 expression is “Increased”.

Q: What about the “desmoglein-1 expression” value (desmoglein-1 (DSG1); concentration (afatinib 3, 10, 30 nM; pan-kinase inhibitors 100 nM)) of the same compound?
A: The value was “significantly increased; also recorded: increased in a dose-dependent manner”.

Q: What about the “increase of the TEWL rate” value [2] of the same compound?
A: The value was “no significant change”.

Q: What about the cell apoptosis [3] of the same compound?
A: The cell apoptosis was “does not induce apoptosis; also recorded: did not show any effect; also recorded: not affected”.

Q: And the Cmax ([4]; maximal plasma concentration after a single daily-recommended dose, human)?
A: The Cmax was 32 nM.

Q: What about the Unbound concentration ([4]; unbound plasma concentration, identified or calculated from Cmax and unbound fraction) of the same compound?
A: Its Unbound concentration is 1.6 nM.

Q: What about the Unbound fraction ([4]; unbound to plasma protein) of the same compound?
A: Its Unbound fraction is 5%*.

Q: What about the “Major Skin Effect” value [5] of the same compound?
A: Its value is “Rash”.
